Laboratory results taken from US9469650B2, “Melampomagnolide B derivatives” (BOARD OF TRUSTEES OF THE UNIVERSITY OF ARKANSAS, priority 2013, dated 2016).
Like-named read-outs stand apart in the source and are kept apart here.

Legend:
[1] = system: HL-60(TB)
[2] = system: CCRF-CEM; test: panel of 60 human tumor cell lines, growth inhibition (Leukemia)
[3] = system: M14; test: panel of 60 human tumor cell lines, growth inhibition (Melanoma); conditions: M14
[4] = system: MDA-MB-435; test: as above; conditions: MDA-MB-435
[5] = system: SF-539; test: panel of 60 human tumor cell lines, growth inhibition (CNS Cancer); conditions: SF-539
[6] = system: COLO 205; test: panel of 60 human tumor cell lines, growth inhibition (Colon Cancer); conditions: COLO 205
[7] = system: HCT-15; test: as above; conditions: HCT-15
[8] = system: HT29; test: as above; conditions: HT29
[9] = system: KM12; test: as above; conditions: KM12
[10] = system: ACHN; test: panel of 60 human tumor cell lines, growth inhibition (Renal Cancer)
[11] = system: SN12C; test: as above
[12] = system: MDA-MB-231/ATCC; test: panel of 60 human tumor cell lines, growth inhibition (Breast Cancer); conditions: MDA-MB-231/ATCC
[13] = system: PC-3; test: panel of 60 human tumor cell lines, growth inhibition (Prostate Cancer); conditions: PC-3
[14] = system: HOP-92; test: panel of 60 human tumor cell lines, growth inhibition (Non-Small Cell Lung Cancer); conditions: HOP-92
[15] = system: NCI-H226; test: as above; conditions: NCI-H226
[16] = system: NCI-H23; test: as above; conditions: NCI-H23
[17] = system: NCI-H460; test: as above; conditions: NCI-H460
[18] = system: NCI-H522; test: as above; conditions: NCI-H522

C=C1C(=O)O[C@H]2[C@H]1CC/C(COC(=O)NCCN1CCCCC1)=C\CC[C@@]1(C)O[C@@H]21 [JVM 2-13]
GI50 [1]: 3.5 µM | TGI [1]: 11.3 µM | Percent Growth ([1]; Log10 Concentration −4.0): −44% | Percent Growth ([1]; Log10 Concentration −5.0): 2% | Percent Growth ([1]; Log10 Concentration −6.0): 107% | Percent Growth ([1]; Log10 Concentration −7.0): 106% | Percent Growth ([1]; Log10 Concentration −8.0): 90% | CC50 ([1]; read-out: LC50): > 100 µM | GI50 [2]: 3.03 µM | TGI [2]: 12.1 µM | Percent Growth ([2]; Log10 Concentration −4.0): −41% | Percent Growth ([2]; Log10 Concentration −5.0): 4% | Percent Growth ([2]; Log10 Concentration −6.0): 93% | Percent Growth ([2]; Log10 Concentration −7.0): 109% | Percent Growth ([2]; Log10 Concentration −8.0): 104% | GI50 [3]: 6.78 µM | Percent Growth ([3]; Log10 Concentration −4.0): −82% | Percent Growth ([3]; Log10 Concentration −5.0): 42% | Percent Growth ([3]; Log10 Concentration −6.0): 91% | Percent Growth ([3]; Log10 Concentration −7.0): 96% | Percent Growth ([3]; Log10 Concentration −8.0): 91% | GI50 [4]: 4.13 µM | TGI [4]: 16.7 µM | Percent Growth ([4]; Log10 Concentration −4.0): −93% | Percent Growth ([4]; Log10 Concentration −5.0): 27% | Percent Growth ([4]; Log10 Concentration −6.0): 87% | Percent Growth ([4]; Log10 Concentration −7.0): 97% | Percent Growth ([4]; Log10 Concentration −8.0): 95% | GI50 [5]: 3.23 µM | TGI [5]: 13.1 µM | Percent Growth ([5]; Log10 Concentration −4.0): −78% | Percent Growth ([5]; Log10 Concentration −5.0): 10% | Percent Growth ([5]; Log10 Concentration −6.0): 91% | Percent Growth ([5]; Log10 Concentration −7.0): 91% | Percent Growth ([5]; Log10 Concentration −8.0): 92% | GI50 [6]: 1.79 µM | TGI [6]: 1.73 µM | Percent Growth ([6]; Log10 Concentration −4.0): −75% | Percent Growth ([6]; Log10 Concentration −5.0): −67% | Percent Growth ([6]; Log10 Concentration −6.0): 90% | Percent Growth ([6]; Log10 Concentration −7.0): 101% | Percent Growth ([6]; Log10 Concentration −8.0): 92% | GI50 [7]: 3.08 µM | TGI [7]: 13.1 µM | Percent Growth ([7]; Log10 Concentration −4.0): −75% | Percent Growth ([7]; Log10 Concentration −5.0): 10% | Percent Growth ([7]; Log10 Concentration −6.0): 88% | Percent Growth ([7]; Log10 Concentration −7.0): 95% | Percent Growth ([7]; Log10 Concentration −8.0): 91% | GI50 [8]: 3.76 µM | TGI [8]: 13 µM | Percent Growth ([8]; Log10 Concentration −4.0): −75% | Percent Growth ([8]; Log10 Concentration −5.0): 10% | Percent Growth ([8]; Log10 Concentration −6.0): 104% | Percent Growth ([8]; Log10 Concentration −7.0): 100% | Percent Growth ([8]; Log10 Concentration −8.0): 100% | GI50 [9]: 14.4 µM | TGI [9]: 29.8 µM | Percent Growth ([9]; Log10 Concentration −4.0): −83% | Percent Growth ([9]; Log10 Concentration −5.0): 75% | Percent Growth ([9]; Log10 Concentration −6.0): 101% | Percent Growth ([9]; Log10 Concentration −7.0): 106% | Percent Growth ([9]; Log10 Concentration −8.0): 106% | GI50 [10]: 2.76 µM | TGI [10]: 12.3 µM | Percent Growth ([10]; Log10 Concentration −4.0): −80% | Percent Growth ([10]; Log10 Concentration −5.0): 8% | Percent Growth ([10]; Log10 Concentration −6.0): 83% | Percent Growth ([10]; Log10 Concentration −7.0): 97% | Percent Growth ([10]; Log10 Concentration −8.0): 94% | GI50 [11]: 3.75 µM | TGI [11]: 16.2 µM | Percent Growth ([11]; Log10 Concentration −4.0): −71% | Percent Growth ([11]; Log10 Concentration −5.0): 19% | Percent Growth ([11]; Log10 Concentration −6.0): 92% | Percent Growth ([11]; Log10 Concentration −7.0): 94% | Percent Growth ([11]; Log10 Concentration −8.0): 97% | GI50 [12]: 5.69 µM | TGI [12]: 20.8 µM | Percent Growth ([12]; Log10 Concentration −4.0): −79% | Percent Growth ([12]; Log10 Concentration −5.0): 37% | Percent Growth ([12]; Log10 Concentration −6.0): 91% | Percent Growth ([12]; Log10 Concentration −7.0): 99% | Percent Growth ([12]; Log10 Concentration −8.0): 107% | GI50 [13]: 15.7 µM | TGI [13]: 33.3 µM | Percent Growth ([13]; Log10 Concentration −4.0): −73% | Percent Growth ([13]; Log10 Concentration −5.0): 80% | Percent Growth ([13]; Log10 Concentration −6.0): 94% | Percent Growth ([13]; Log10 Concentration −7.0): 96% | Percent Growth ([13]; Log10 Concentration −8.0): 97% | GI50 [14]: 1.58 µM | TGI [14]: 11.2 µM | Percent Growth ([14]; Log10 Concentration −4.0): −83% | Percent Growth ([14]; Log10 Concentration −5.0): 4% | Percent Growth ([14]; Log10 Concentration −6.0): 61% | Percent Growth ([14]; Log10 Concentration −7.0): 76% | Percent Growth ([14]; Log10 Concentration −8.0): 82% | GI50 [15]: 10.5 µM | TGI [15]: 40.2 µM | Percent Growth ([15]; Log10 Concentration −4.0): −3% | Percent Growth ([15]; Log10 Concentration −5.0): 52% | Percent Growth ([15]; Log10 Concentration −6.0): 93% | Percent Growth ([15]; Log10 Concentration −7.0): 96% | Percent Growth ([15]; Log10 Concentration −8.0): 99% | GI50 [16]: 11.3 µM | TGI [16]: 27.2 µM | Percent Growth ([16]; Log10 Concentration −4.0): −74% | Percent Growth ([16]; Log10 Concentration −5.0): 57% | Percent Growth ([16]; Log10 Concentration −6.0): 104% | Percent Growth ([16]; Log10 Concentration −7.0): 100% | Percent Growth ([16]; Log10 Concentration −8.0): 98% | TGI [17]: 36.5 µM | Percent Growth ([17]; Log10 Concentration −4.0): −66% | Percent Growth ([17]; Log10 Concentration −5.0): 85% | Percent Growth ([17]; Log10 Concentration −6.0): 100% | Percent Growth ([17]; Log10 Concentration −7.0): 100% | Percent Growth ([17]; Log10 Concentration −8.0): 102% | GI50 [18]: 1.12 µM | TGI [18]: 2.86 µM | Percent Growth ([18]; Log10 Concentration −4.0): −65% | Percent Growth ([18]; Log10 Concentration −5.0): −67% | Percent Growth ([18]; Log10 Concentration −6.0): 56% | Percent Growth ([18]; Log10 Concentration −7.0): 105% | Percent Growth ([18]; Log10 Concentration −8.0): 99%
